Converted amounts (≈) assume the structure as drawn.
How the values were obtained:
Type in all cases: functional
Staphylococcus aureus [1] = experiment: Antimicrobial activity against Staphylococcus aureus GC 2216 (ATCC); Not active; 1-4
Enterococcus faecalis [2] = experiment: Antimicrobial activity against Enterococcus faecalis GC 4555 (ATCC); Not active; 1-4
Staphylococcus aureus [3] = experiment: Antimicrobial activity against Staphylococcus aureus GC 1131 (MRSA); Not active; 1-4
[4] = Inhibitory activity against MurB
Escherichia coli [5] = experiment: Antimicrobial activity against Escherichia coli GC 4559; Not active; 1-4
Streptococcus pneumoniae [6] = experiment: Antimicrobial activity against Streptococcus pneumoniae GC1894 (PRSP) in the presence of 4% bovine serum albumin; Not active; 1-4
Staphylococcus aureus [7] = experiment: Antimicrobial activity against Staphylococcus aureus GC 4543 (MSSA); Not active; 1-4
Enterococcus faecalis [8] = experiment: Antimicrobial activity against Enterococcus faecalis GC 2242 (VRE); Not active; 1-4
Escherichia coli [9] = experiment: Antimicrobial activity against Escherichia coli GC 4560; Not active; 1-4
Staphylococcus [10] = experiment: Antimicrobial activity against MSCNS (methicillin-susceptible coagulase-negative staphylococci) GC 646; Not active; 1-4
Streptococcus pneumoniae [11] = experiment: Antimicrobial activity against Streptococcus pneumoniae GC1894 (PRSP); Not active; 1-4
Escherichia coli [12] = experiment: Antimicrobial activity against Escherichia coli GC 4560; Not active; 16->128
Staphylococcus aureus [13] = experiment: Antimicrobial activity against Staphylococcus aureus GC 2216 (ATCC); Not active; 16->128
Enterococcus faecalis [14] = experiment: Antimicrobial activity against Enterococcus faecalis GC 2242 (VRE); Not active; 16->128
Staphylococcus aureus [15] = experiment: Antimicrobial activity against Staphylococcus aureus GC 4543 (MSSA); Not active; 16->128
Staphylococcus aureus [16] = experiment: Antimicrobial activity against Staphylococcus aureus GC 1131 (MRSA); Not active; 16->128
Staphylococcus [17] = experiment: Antimicrobial activity against MSCNS (methicillin-susceptible coagulase-negative staphylococci) GC 646; Not active; 16->128
Escherichia coli [18] = experiment: Antimicrobial activity against Escherichia coli GC 4559; Not active; 16->128
Enterococcus faecalis [19] = experiment: Antimicrobial activity against Enterococcus faecalis GC 4555 (ATCC); Not active; 16->128
Streptococcus pneumoniae [20] = experiment: Antimicrobial activity against Streptococcus pneumoniae GC1894 (PRSP); Not active; 16->128
Streptococcus pneumoniae [21] = experiment: Antimicrobial activity against Streptococcus pneumoniae GC1894 (PRSP) in the presence of 4% bovine serum albumin; Not active; 16->128
Staphylococcus aureus [22] = experiment: Antimicrobial activity against Staphylococcus aureus GC 1131 (MRSA); Not active; 32-128
Escherichia coli [23] = experiment: Antimicrobial activity against Escherichia coli GC 4560; Not active; 32-128
Escherichia coli [24] = experiment: Antimicrobial activity against Escherichia coli GC 4559; Not active; 32-128
Staphylococcus [25] = experiment: Antimicrobial activity against MSCNS (methicillin-susceptible coagulase-negative staphylococci) GC 646; Not active; 32-128
Streptococcus pneumoniae [26] = experiment: Antimicrobial activity against Streptococcus pneumoniae GC1894 (PRSP) in the presence of 4% bovine serum albumin; Not active; 32-128
Enterococcus faecalis [27] = experiment: Antimicrobial activity against Enterococcus faecalis GC 4555 (ATCC); Not active; 32-128
Enterococcus faecalis [28] = experiment: Antimicrobial activity against Enterococcus faecalis GC 2242 (VRE); Not active; 32-128
Streptococcus pneumoniae [29] = experiment: Antimicrobial activity against Streptococcus pneumoniae GC1894 (PRSP); Not active; 32-128
Staphylococcus aureus [30] = experiment: Antimicrobial activity against Staphylococcus aureus GC 2216 (ATCC); Not active; 32-128
Staphylococcus aureus [31] = experiment: Antimicrobial activity against Staphylococcus aureus GC 4543 (MSSA); Not active; 32-128
Streptococcus pneumoniae [32] = experiment: Antimicrobial activity against Streptococcus pneumoniae GC1894 (PRSP) in the presence of 4% bovine serum albumin; Not active; 0.5-128
Escherichia coli [33] = experiment: Antimicrobial activity against Escherichia coli GC 4560; Not active; 0.5-128
Enterococcus faecalis [34] = experiment: Antimicrobial activity against Enterococcus faecalis GC 4555 (ATCC); Not active; 0.5-128
Staphylococcus aureus [35] = experiment: Antimicrobial activity against Staphylococcus aureus GC 4543 (MSSA); Not active; 0.5-128
Staphylococcus [36] = experiment: Antimicrobial activity against MSCNS (methicillin-susceptible coagulase-negative staphylococci) GC 646; Not active; 0.5-128
Escherichia coli [37] = experiment: Antimicrobial activity against Escherichia coli GC 4559; Not active
Enterococcus faecalis [38] = experiment: Antimicrobial activity against Enterococcus faecalis GC 2242 (VRE); Not active; 0.5-128
Streptococcus pneumoniae [39] = experiment: Antimicrobial activity against Streptococcus pneumoniae GC1894 (PRSP); Not active; 0.5-128
Staphylococcus aureus [40] = experiment: Antimicrobial activity against Staphylococcus aureus GC 2216 (ATCC); Not active; 0.5-128
Staphylococcus aureus [41] = experiment: Antimicrobial activity against Staphylococcus aureus GC 1131 (MRSA); Not active; 0.5-128
Enterococcus faecalis [42] = experiment: Antimicrobial activity against Enterococcus faecalis GC 2242 (VRE); Not active; 0.5-8
Streptococcus pneumoniae [43] = experiment: Antimicrobial activity against Streptococcus pneumoniae GC1894 (PRSP); Not active; 0.5-8
Staphylococcus aureus [44] = experiment: Antimicrobial activity against Staphylococcus aureus GC 2216 (ATCC); Not active; 0.5-8
Streptococcus pneumoniae [45] = experiment: Antimicrobial activity against Streptococcus pneumoniae GC1894 (PRSP) in the presence of 4% bovine serum albumin; Not active; 0.5-8
Enterococcus faecalis [46] = experiment: Antimicrobial activity against Enterococcus faecalis GC 4555 (ATCC); Not active; 0.5-8
Staphylococcus [47] = experiment: Antimicrobial activity against MSCNS (methicillin-susceptible coagulase-negative staphylococci) GC 646; Not active; 0.5-8
Staphylococcus aureus [48] = experiment: Antimicrobial activity against Staphylococcus aureus GC 1131 (MRSA); Not active; 0.5-8
Escherichia coli [49] = experiment: Antimicrobial activity against Escherichia coli GC 4560; Not active; 0.5-8
Escherichia coli [50] = experiment: Antimicrobial activity against Escherichia coli GC 4559; Not active; 0.5-8
Staphylococcus aureus [51] = experiment: Antimicrobial activity against Staphylococcus aureus GC 4543 (MSSA); Not active; 0.5-8

COC(=O)c1cnn(C)c1NC(=O)Nc1ccc(Cl)c(Cl)c1
MIC (Staphylococcus aureus [1]): 4 µg/mL (≈ 11.7 µM)
MIC (Enterococcus faecalis [2]): 4 µg/mL (≈ 11.7 µM)
MIC (Staphylococcus aureus [3]): 4 µg/mL (≈ 11.7 µM)
IC50 [4]: 23 µg/mL (≈ 67 µM)
MIC (Escherichia coli [5]): 4 µg/mL (≈ 11.7 µM)
MIC (Streptococcus pneumoniae [6]): 4 µg/mL
MIC (Staphylococcus aureus [7]): 4 µg/mL (≈ 11.7 µM)
MIC (Enterococcus faecalis [8]): 4 µg/mL (≈ 11.7 µM)
MIC (Escherichia coli [9]): 4 µg/mL (≈ 11.7 µM)
MIC (Staphylococcus [10]): 4 µg/mL (≈ 11.7 µM)
MIC (Streptococcus pneumoniae [11]): 4 µg/mL (≈ 11.7 µM)

O=C(Nc1ccc(Cl)c(Cl)c1)Nc1nncs1
MIC (Escherichia coli [12]): > 128 µg/mL
IC50 [4]: > 25 µg/mL
MIC (Staphylococcus aureus [13]): > 128 µg/mL
MIC (Enterococcus faecalis [14]): > 128 µg/mL
MIC (Staphylococcus aureus [15]): > 128 µg/mL
MIC (Staphylococcus aureus [16]): > 128 µg/mL
MIC (Staphylococcus [17]): > 128 µg/mL
MIC (Escherichia coli [18]): > 128 µg/mL
MIC (Enterococcus faecalis [19]): > 128 µg/mL
MIC (Streptococcus pneumoniae [20]): > 128 µg/mL
MIC (Streptococcus pneumoniae [21]): > 128 µg/mL

O=C(Nc1ccc(Cl)c(Cl)c1)Nc1cccc2cccnc12
MIC (Staphylococcus aureus [22]): > 128 µg/mL
MIC (Escherichia coli [23]): > 128 µg/mL
MIC (Escherichia coli [24]): > 128 µg/mL
IC50 [4]: > 25 µg/mL
MIC (Staphylococcus [25]): > 128 µg/mL
MIC (Streptococcus pneumoniae [26]): > 128 µg/mL
MIC (Enterococcus faecalis [27]): > 128 µg/mL
MIC (Enterococcus faecalis [28]): > 128 µg/mL
MIC (Streptococcus pneumoniae [29]): > 128 µg/mL
MIC (Staphylococcus aureus [30]): > 128 µg/mL
MIC (Staphylococcus aureus [31]): > 128 µg/mL

COC(=O)c1sccc1NC(=O)Nc1ccc(Cl)c(Cl)c1
MIC (Streptococcus pneumoniae [32]): > 128 µg/mL
IC50 [4]: 18 µg/mL (≈ 52.1 µM)
MIC (Escherichia coli [33]): > 128 µg/mL
MIC (Enterococcus faecalis [34]): > 128 µg/mL
MIC (Staphylococcus aureus [35]): > 128 µg/mL
MIC (Staphylococcus [36]): > 128 µg/mL
MIC (Escherichia coli [37]): > 128 µg/mL
MIC (Enterococcus faecalis [38]): > 128 µg/mL
MIC (Streptococcus pneumoniae [39]): > 128 µg/mL
MIC (Staphylococcus aureus [40]): > 128 µg/mL
MIC (Staphylococcus aureus [41]): > 128 µg/mL

O=C(Nc1ccc(Cl)c(Cl)c1)Nc1ccccn1
MIC (Enterococcus faecalis [42]): 8 µg/mL (≈ 28.4 µM)
MIC (Streptococcus pneumoniae [43]): 8 µg/mL (≈ 28.4 µM)
MIC (Staphylococcus aureus [44]): 8 µg/mL (≈ 28.4 µM)
IC50 [4]: 17 µg/mL (≈ 60.3 µM)
MIC (Streptococcus pneumoniae [45]): 8 µg/mL
MIC (Enterococcus faecalis [46]): 8 µg/mL (≈ 28.4 µM)
MIC (Staphylococcus [47]): 8 µg/mL (≈ 28.4 µM)
MIC (Staphylococcus aureus [48]): 8 µg/mL (≈ 28.4 µM)
MIC (Escherichia coli [49]): 8 µg/mL (≈ 28.4 µM)
MIC (Escherichia coli [50]): 8 µg/mL (≈ 28.4 µM)
MIC (Staphylococcus aureus [51]): 8 µg/mL (≈ 28.4 µM)
